Target: HPK1 (Homo sapiens, UniProt Q92918)
Assay: Inhibitory effect against enzyme activity of HPK1 (lantha Screen, PKC substrate)
Type: biochemical
Details: class symbols defined as IC50 ranges, read-out: Inhibition rate (%)
Procedure: Example 130: Assay of Inhibitory Effect of Compound Against Enzyme Activity of HPK1
The inhibitory effect of the compound against the enzyme activity of HPK1 was determined by using a lantha Screen method with PKC as a substrate. The process comprises the following specific steps: the HPK1 protein was incubated with the serially-diluted compound at 28° C. for 10 min followed by addition of fluoroescein-labeled PKC substrate and ATP to react for 90 min. After termination of the reaction, a Terbium-labeled antibody against phosphorylated PKC was added and incubated for 60 min. The energy transfer of Teribium and fluoroscein was monitored by detecting luminescence at 520 nm and 450 nm to quantify PKC as the level of phosphorylation of […]. Inhibition % and IC50 of the compound were calculated compared to the control group.

Sequence of HPK1 (Q92918 whole entry): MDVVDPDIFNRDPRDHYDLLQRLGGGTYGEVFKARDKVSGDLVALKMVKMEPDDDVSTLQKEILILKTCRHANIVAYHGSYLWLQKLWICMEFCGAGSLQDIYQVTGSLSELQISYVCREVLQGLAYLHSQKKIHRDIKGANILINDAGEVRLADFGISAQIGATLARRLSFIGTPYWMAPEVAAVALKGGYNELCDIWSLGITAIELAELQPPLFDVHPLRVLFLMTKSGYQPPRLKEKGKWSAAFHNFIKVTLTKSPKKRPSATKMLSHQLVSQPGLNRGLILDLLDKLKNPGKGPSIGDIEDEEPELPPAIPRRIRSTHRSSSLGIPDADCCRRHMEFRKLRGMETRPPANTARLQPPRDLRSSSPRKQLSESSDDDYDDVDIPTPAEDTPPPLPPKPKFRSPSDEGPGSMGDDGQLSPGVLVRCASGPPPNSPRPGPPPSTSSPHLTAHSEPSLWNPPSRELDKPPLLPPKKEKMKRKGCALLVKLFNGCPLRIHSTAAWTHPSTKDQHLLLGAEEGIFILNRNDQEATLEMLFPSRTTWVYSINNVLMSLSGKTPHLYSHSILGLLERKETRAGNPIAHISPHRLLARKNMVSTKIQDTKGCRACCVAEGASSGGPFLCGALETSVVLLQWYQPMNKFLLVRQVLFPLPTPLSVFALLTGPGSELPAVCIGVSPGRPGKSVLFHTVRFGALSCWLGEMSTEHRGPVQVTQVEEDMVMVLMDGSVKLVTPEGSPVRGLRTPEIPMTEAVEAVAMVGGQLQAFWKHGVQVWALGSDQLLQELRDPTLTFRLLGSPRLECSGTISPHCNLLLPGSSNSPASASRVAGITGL

Row | Structure (SMILES) | IC50 [nM]
1 | CN1CCN2c3ccc(-c4n[nH]c5cc(C#N)c(-c6ccccc6F)cc45)cc3OCC2C1 (stereo not shown) [Compound 1, 5-(2-fluorophenyl)-3-(3-methyl-1,2,3,4,4a,5-hexahydrobenzo[b]pyrazino[1,2-d][1,4]oxazin-8-yl)-1H-indazole-6-carbonitrile] | ≤ 10
2 | Cc1ccccc1-c1cc2c(-c3ccc4c(c3)OCC3CN(C)CCN43)n[nH]c2cc1C#N (stereo not shown) [Compound 3] | 10 to 100
3 | CN1CCN2c3ccc(-c4n[nH]c5cc(C#N)c(-c6c(F)cccc6F)cc45)cc3OCC2C1 (stereo not shown) [Compound 4] | 10 to 100
4 | CN1CCN2c3ccc(-c4n[nH]c5cc(C#N)c(-c6cccc(C(N)=O)c6F)cc45)cc3OCC2C1 (stereo not shown) [Compound 9] | ≤ 10
5 | CN1CCN2c3ccc(-c4n[nH]c5cc(C#N)c(-c6cccc(P(C)(C)=O)c6F)cc45)cc3OCC2C1 (stereo not shown) [Compound 12] | ≤ 10
6 | CN1CCN2c3ccc(-c4n[nH]c5cc(C#N)c(-c6cccc(S(C)(=O)=O)c6F)cc45)cc3OCC2C1 (stereo not shown) [Compound 13] | ≥ 100
7 | CNS(=O)(=O)c1cccc(-c2cc3c(-c4ccc5c(c4)OCC4CN(C)CCN54)n[nH]c3cc2C#N)c1F (stereo not shown) [Compound 14] | ≤ 10
8 | Cc1ccc(F)c(F)c1-c1cc2c(-c3ccc4c(c3)OCC3CN(C)CCN43)n[nH]c2cc1C#N (stereo not shown) [Compound 15] | ≤ 10
9 | CNCc1cc(F)c(-c2cc3c(-c4ccc5c(c4)OCC4CN(C)CCN54)n[nH]c3cc2C#N)c(C(F)(F)F)c1 (stereo not shown) [Compound 19] | ≤ 10
10 | CNCc1cc(F)c(-c2cc3c(-c4ccc5c(c4)OCC4CN(C)CCN54)n[nH]c3cc2C#N)c(OC)c1 (stereo not shown) [Compound 20] | ≤ 10
11 | CN1CCN2c3ccc(-c4n[nH]c5cc(C#N)c(-c6c(F)cc(CC#N)cc6F)cc45)cc3OCC2C1 (stereo not shown) [Compound 24] | ≤ 10
12 | CN1CCN2c3ccc(-c4n[nH]c5cc(C#N)c(-c6c(F)cc(C7CCCC7N)cc6F)cc45)cc3OCC2C1 (stereo not shown) [Compound 26] | ≤ 10
13 | CN(C)CC(=O)Nc1cc(F)c(-c2cc3c(-c4ccc5c(c4)OCC4CN(C)CCN54)n[nH]c3cc2C#N)c(F)c1 (stereo not shown) [Compound 27] | ≤ 10
14 | CN1CCN2c3ccc(-c4n[nH]c5cc(C#N)c(-c6c(F)cc(NC(=O)CN7CCCC7)cc6F)cc45)cc3OCC2C1 (stereo not shown) [Compound 28] | ≤ 10
15 | CN1CCN2c3ccc(-c4n[nH]c5cc(C#N)c(-c6c(F)cc(NC(=O)Cc7cccnc7)cc6F)cc45)cc3OCC2C1 (stereo not shown) [Compound 31] | 10 to 100
16 | CN1CCN2c3ccc(-c4n[nH]c5cc(C#N)c(-c6c(F)cc(OC(=O)N(C)C)cc6F)cc45)cc3OCC2C1 (stereo not shown) [Compound 34] | 10 to 100

Row | Structure (SMILES) | IC50 [nM]
17 | CN1CCN2c3ccc(-c4n[nH]c5cc(C#N)c(-c6c(F)cc(C(=O)N7CC(O)C7)cc6F)cc45)cc3OCC2C1 (stereo not shown) [Compound 36] | ≤ 10
18 | CN1CCN2c3ccc(-c4n[nH]c5cc(C#N)c(-c6c(F)cc7c(c6F)CC(N)CC7)cc45)cc3OCC2C1 (stereo not shown) [Compound 39] | ≤ 10
19 | CN1CCN2c3ccc(-c4n[nH]c5cc(C#N)c(-c6ccc(-c7ccccn7)cc6F)cc45)cc3OCC2C1 (stereo not shown) [Compound 40] | 10 to 100
20 | COc1ccncc1-c1cc2c(-c3ccc4c(c3)OCC3CN(C)CCN43)n[nH]c2cc1C#N (stereo not shown) [Compound 44] | ≤ 10
21 | CNC(=O)c1cncc(-c2cc3c(-c4ccc5c(c4)OCC4CN(C)CCN54)n[nH]c3cc2C#N)c1 (stereo not shown) [Compound 46] | ≤ 10
22 | CN1CCN2c3ccc(-c4n[nH]c5cc(C#N)c(-c6cnccn6)cc45)cc3OCC2C1 (stereo not shown) [Compound 49] | ≤ 10
23 | CN1CCN2c3ccc(-c4n[nH]c5cc(C#N)c(-c6cnc7nccnc7c6)cc45)cc3OCC2C1 (stereo not shown) [Compound 53] | ≤ 10
24 | CN1CCN2c3ccc(-c4n[nH]c5cc(C#N)c(-c6cccn7ccnc67)cc45)cc3OCC2C1 (stereo not shown) [Compound 55] | ≤ 10
25 | CN1CCN2c3ccc(-c4n[nH]c5cc(C#N)c(-c6cccn7cnnc67)cc45)cc3OCC2C1 (stereo not shown) [Compound 56] | ≤ 10
26 | CN1CCN2c3ccc(-c4n[nH]c5cc(C#N)c(-c6ccc7nccn7c6)cc45)cc3OCC2C1 (stereo not shown) [Compound 59] | ≤ 10
27 | CN1CCN2c3ccc(-c4n[nH]c5cc(C#N)c(-c6cnn7ccccc67)cc45)cc3OCC2C1 (stereo not shown) [Compound 62] | 10 to 100
28 | CN1CCN2c3ccc(-c4n[nH]c5cc(C#N)c(-c6cnn7cccnc67)cc45)cc3OCC2C1 (stereo not shown) [Compound 63] | ≤ 10
29 | Cc1cccc(F)c1-c1cc2c(-c3ccc4c(c3)OCC3CN(C)CCN43)n[nH]c2cn1 (stereo not shown) [Compound 65] | 10 to 100
30 | CN1CCN2c3ccc(-c4n[nH]c5cnc(-c6c(F)cccc6F)cc45)cc3OCC2C1 (stereo not shown) [Compound 66] | 10 to 100
31 | Cc1ccncc1-c1cc2c(-c3ccc4c(c3)OCC3CN(C)CCN43)n[nH]c2cn1 (stereo not shown) [Compound 70] | ≤ 10

Next, values leading:

Row | IC50 [nM] | Structure (SMILES)
32 | ≤ 10 | CN1CCN2c3ccc(-c4n[nH]c5cc(C#N)c(-c6ccccc6F)cc45)cc3OC[C@@H]2C1 [Compound 1-a]
33 | ≤ 10 | CN1CCN2c3ccc(-c4n[nH]c5cc(C#N)c(-c6ccccc6F)cc45)cc3OC[C@H]2C1 [Compound 1-b]
34 | ≤ 10 | COc1ccccc1-c1cc2c(-c3ccc4c(c3)OCC3CN(C)CCN43)n[nH]c2cc1C#N (stereo not shown) [Compound 2]
35 | 10 to 100 | Cc1cccc(F)c1-c1cc2c(-c3ccc4c(c3)OCC3CN(C)CCN43)n[nH]c2cc1C#N (stereo not shown) [Compound 5]
36 | ≥ 100 | CN1CCN2c3ccc(-c4n[nH]c5cc(C#N)c(-c6cccc(F)c6F)cc45)cc3OCC2C1 (stereo not shown) [Compound 7]
37 | ≤ 10 | CN1CCN2c3ccc(-c4n[nH]c5cc(C#N)c(-c6cccc(C#N)c6F)cc45)cc3OCC2C1 (stereo not shown) [Compound 8]
38 | ≤ 10 | CN1CCN2c3ccc(-c4n[nH]c5cc(C#N)c(-c6cccc(C(=O)NCc7ccncc7)c6F)cc45)cc3OCC2C1 (stereo not shown) [Compound 10]
39 | 10 to 100 | CN1CCN2c3ccc(-c4n[nH]c5cc(C#N)c(-c6cccc(NS(C)(=O)=O)c6F)cc45)cc3OCC2C1 (stereo not shown) [Compound 11]
40 | ≤ 10 | CNCc1cc(C)c(-c2cc3c(-c4ccc5c(c4)OCC4CN(C)CCN54)n[nH]c3cc2C#N)c(F)c1 (stereo not shown) [Compound 17]
41 | ≤ 10 | CCNCc1cc(F)c(-c2cc3c(-c4ccc5c(c4)OCC4CN(C)CCN54)n[nH]c3cc2C#N)c(F)c1 (stereo not shown) [Compound 21]
42 | ≤ 10 | CN1CCN2c3ccc(-c4n[nH]c5cc(C#N)c(-c6c(F)cc(C7CCCN7)cc6F)cc45)cc3OCC2C1 (stereo not shown) [Compound 22]
43 | ≤ 10 | CN1CCN2c3ccc(-c4n[nH]c5cc(C#N)c(-c6c(F)cc(C7CCCCN7)cc6F)cc45)cc3OCC2C1 (stereo not shown) [Compound 23]
44 | ≤ 10 | COCc1cc(F)c(-c2cc3c(-c4ccc5c(c4)OCC4CN(C)CCN54)n[nH]c3cc2C#N)c(F)c1 (stereo not shown) [Compound 25]
45 | ≤ 10 | CN1CCN2c3ccc(-c4n[nH]c5cc(C#N)c(-c6c(F)cc(NC(=O)CN7CC8(COC8)C7)cc6F)cc45)cc3OCC2C1 (stereo not shown) [Compound 29]
46 | ≤ 10 | CN1CCN2c3ccc(-c4n[nH]c5cc(C#N)c(-c6c(F)cc(NC(=O)CC#N)cc6F)cc45)cc3OCC2C1 (stereo not shown) [Compound 30]
47 | ≤ 10 | CN1CCN2c3ccc(-c4n[nH]c5cc(C#N)c(-c6c(F)cc(OCc7ccncc7)cc6F)cc45)cc3OCC2C1 (stereo not shown) [Compound 32]
48 | ≤ 10 | CN1CCC(Oc2cc(F)c(-c3cc4c(-c5ccc6c(c5)OCC5CN(C)CCN65)n[nH]c4cc3C#N)c(F)c2)CC1 (stereo not shown) [Compound 33]
49 | ≤ 10 | CN1CCN2c3ccc(-c4n[nH]c5cc(C#N)c(-c6c(F)ccc7c6CCNC7)cc45)cc3OCC2C1 (stereo not shown) [Compound 37]

Row | IC50 [nM] | Structure (SMILES)
50 | ≤ 10 | CN1CCN2c3ccc(-c4n[nH]c5cc(C#N)c(-c6c(F)ccc7c6CCCC7N)cc45)cc3OCC2C1 (stereo not shown) [Compound 38]
51 | ≤ 10 | CN1CCN2c3ccc(-c4n[nH]c5cc(C#N)c(-c6cccnc6)cc45)cc3OCC2C1 (stereo not shown) [Compound 41]
52 | ≤ 10 | CN1CCN2c3ccc(-c4n[nH]c5cc(C#N)c(-c6ncccc6F)cc45)cc3OCC2C1 (stereo not shown) [Compound 42]
53 | ≤ 10 | Cc1cncc(-c2cc3c(-c4ccc5c(c4)OCC4CN(C)CCN54)n[nH]c3cc2C#N)c1 (stereo not shown) [Compound 45]
54 | ≤ 10 | Cc1n[nH]cc1-c1cc2c(-c3ccc4c(c3)OCC3CN(C)CCN43)n[nH]c2cc1C#N (stereo not shown) [Compound 47]
55 | ≤ 10 | CN1CCN2c3ccc(-c4n[nH]c5cc(C#N)c(-c6cncnc6)cc45)cc3OCC2C1 (stereo not shown) [Compound 48]
56 | ≤ 10 | CN1CCN2c3ccc(-c4n[nH]c5cc(C#N)c(-c6cccc7[nH]ncc67)cc45)cc3OCC2C1 (stereo not shown) [Compound 50]
57 | ≤ 10 | CN1CCN2c3ccc(-c4n[nH]c5cc(C#N)c(-c6cnc7cnn(C)c7c6)cc45)cc3OCC2C1 (stereo not shown) [Compound 51]
58 | ≤ 10 | CN1CCN2c3ccc(-c4n[nH]c5cc(C#N)c(-c6cnc7c(c6)ncn7C)cc45)cc3OCC2C1 (stereo not shown) [Compound 52]
59 | 10 to 100 | CN1CCN2c3ccc(-c4n[nH]c5cc(C#N)c(-c6cncc7ccccc67)cc45)cc3OCC2C1 (stereo not shown) [Compound 54]
60 | ≤ 10 | CN1CCN2c3ccc(-c4n[nH]c5cc(C#N)c(-c6cccn7ncnc67)cc45)cc3OCC2C1 (stereo not shown) [Compound 57]
61 | ≤ 10 | CN1CCN2c3ccc(-c4n[nH]c5cc(C#N)c(-c6cnc7ccnn7c6)cc45)cc3OCC2C1 (stereo not shown) [Compound 58]
62 | ≤ 10 | CN1CCN2c3ccc(-c4n[nH]c5cc(C#N)c(-c6ccn7ncnc7c6)cc45)cc3OCC2C1 (stereo not shown) [Compound 60]
63 | ≤ 10 | CN1CCN2c3ccc(-c4n[nH]c5cc(C#N)c(-c6ccn7cnnc7c6)cc45)cc3OCC2C1 (stereo not shown) [Compound 61]
64 | ≤ 10 | COc1cccc(F)c1-c1cc2c(-c3ccc4c(c3)OCC3CN(C)CCN43)n[nH]c2cn1 (stereo not shown) [Compound 64]
65 | ≤ 10 | CNCc1cc(F)c(-c2cc3c(-c4ccc5c(c4)OCC4CN(C)CCN54)n[nH]c3cn2)c(F)c1 (stereo not shown) [Compound 68]
66 | ≤ 10 | CNCc1cc(C)c(-c2cc3c(-c4ccc5c(c4)OCC4CN(C)CCN54)n[nH]c3cn2)c(F)c1 (stereo not shown) [Compound 69]
67 | ≤ 10 | COc1ccncc1-c1cc2c(-c3ccc4c(c3)OCC3CN(C)CCN43)n[nH]c2cn1 (stereo not shown) [Compound 71]

From patent US12686689B2, “HPK1 inhibitor, preparation method therefor and use thereof” (WIGEN BIOMEDICINE TECHNOLOGY (SHANGHAI) CO., LTD., priority 2020, dated 2026)
